# Measurements from publication PMC6152321, “High-Resolution Inhibition Profiling Combined with HPLC-HRMS-SPE-NMR for Identification of PTP1B Inhibitors from Vietnamese Plants” (Molecules : A Journal of Synthetic Chemistry and Natural …, 2017).
# How the values were obtained:
# [1] = target: T1, Recombinant human protein tyrosine phosphatase 1B (PTP1B) (Homo sapiens, UniProt P18031); test: In vitro PTP1B inhibition assay (pNPP hydrolysis, absorbance at 405 nm); type: biochemical; conditions: for IC50: isolated compounds, mean ± SD, n = 3
# T1 construct: purchased Enzo Life Sciences Inc. BML-SE332-0050
# T1 sequence (P18031 1-322 limits assumed): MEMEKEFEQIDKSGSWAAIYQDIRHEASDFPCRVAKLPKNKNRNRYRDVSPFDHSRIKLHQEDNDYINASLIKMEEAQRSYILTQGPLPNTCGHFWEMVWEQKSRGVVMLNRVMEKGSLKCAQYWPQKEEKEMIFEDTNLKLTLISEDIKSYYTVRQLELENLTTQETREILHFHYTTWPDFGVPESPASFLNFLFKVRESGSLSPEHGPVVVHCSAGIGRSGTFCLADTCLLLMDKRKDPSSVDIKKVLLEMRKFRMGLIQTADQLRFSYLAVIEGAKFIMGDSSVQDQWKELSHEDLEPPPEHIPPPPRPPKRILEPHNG
# Method: (§1) Based on the method described by Tahtah et al., the PTP1B inhibition assay was performed at 25 °C using a two-component buffer, containing 50 mM Tris, 50 mM bis-Tris and 100 mM NaCl, adjusted to pH 7.0 with acetic acid. The final reaction volume was 180 µL, including 18 µL test sample dissolved in DMSO, 52 µL of buffer with 3.46 mM EDTA (final well concentrations 10% DMSO and 1 mM EDTA), and 60 µL of buffer with 1.5 mM pNPP and 6 mM DTT (final well concentrations 0.5 mM pNPP and 2 mM DTT). After preincubation at 25 °C for 10 min, the reaction was started by addition of 50 µL of 0.001 µg/µL PTP1B stock solution (final well concentration: 0.05 µg/well). The hydrolysis rate of pNPP to release p-nitrophenol was determined by measuring the absorbance at 405 nm every 30 s for 10 min. Preincubation and absorbance measurements were performed with a Multiscan FC microplate photometer with a built-in incubator (Thermo Scientific, Waltham, MA, USA) coupled to SkanIt version 2.5.1 software for data acquisition. The PTP1B inhibitory activity was expressed as percentage inhibition and was calculated using the following formula: % inhibition = (Slopeblank − Slopesample)/Slopeblank × 100
# RK682 was used as a positive control and all measurements were performed in triplicate. Dose-response curves and IC50 values were obtained using GraFit version 5 (Erithacus Software Ltd., Horley, UK).
# [2] = target: T1, Recombinant human protein tyrosine phosphatase 1B (PTP1B); test: Kinetics of PTP1B inhibition (Lineweaver-Burk plots, Michaelis-Menten fit); type: biochemical; conditions: for Mode of Inhibition: from Lineweaver-Burk plots; for Ki: pNPP 0.125-4.0 mM, mean ± SD, n = 3
# Method: as §1
# Enzyme kinetics of isolated PTP1B inhibitors was measured in triplicate using the standard assay conditions described above. Reactions were carried out with increasing concentrations of pNPP (0.125, 0.25, 0.5, 1.0, 2.0 and 4.0 mM) as substrate in the absence and presence of test samples (4 concentrations). The mode of inhibition was determined graphically from the Lineweaver-Burk plots. Kinetic parameters were calculated by fitting the data to the Michaelis–Menten equation using non-linear regression analysis (GraphPad Prism 7.0, GraphPad Software Inc., La Jolla, CA, USA).
# PTP1B = conditions: cited from earlier work; for IC50: read-out: IC50 against PTP1B
Compound,IC50 [1],Mode of Inhibition [2],Ki [2],IC50 (PTP1B),IC50 of RK682 ([1]; positive control in crude extract screening),PTP1B inhibition at 25 µM (PTP1B; concentration 25 µM)
"CC(C)=C[C@@H]1C[C@](C)(/C=C/c2cc(-c3coc4cc(O)cc(O)c4c3=O)ccc2O)Oc2ccc(-c3coc4cc(O)cc(O)c4c3=O)cc21 [Compound 4, mucusisoflavone B]",2.5 ± 0.2 µM,Non-competitive,3 ± 0.5 µM,–,–,–
"CC1(C)C=Cc2c(cc3occ(-c4ccc(O)cc4)c(=O)c3c2O)O1 [Compound 3, alpinumisoflavone]",21.2 ± 3.8 µM,Non-competitive,14.3 ± 2 µM,37.52 ± 0.31 µM,–,–
"CCCCCCCCCCCCCCCC(=O)C1=C(O)C(CO)OC1=O (centres unmarked) [RK682, reference compound]",10.4 ± 1.6 µM,–,–,–,3.8 ± 0.6 µg/mL,–
"CC1(C)C=Cc2cc(-c3coc4cc(O)cc(O)c4c3=O)ccc2O1 [Compound 1, isoderrone]",22.7 ± 1.7 µM,Non-competitive,21.3 ± 2.8 µM,–,–,78%
"CC1(C)C=Cc2c(cc(O)c3c(=O)c(-c4ccc(O)cc4)coc23)O1 [Compound 2, derrone]",12.6 ± 1.6 µM,Non-competitive,7.9 ± 1.9 µM,20.63 ± 0.17 µM,–,–
